Paper PMC6017062, “Probing the Inhibitor versus Chaperone Properties of sp^2-Iminosugars towards Human β-Glucocerebrosidase: A Picomolar Chaperone for Gaucher Disease” (Molecules : A Journal of Synthetic Chemistry and Natural …, 2018)
Numbering of substitutions follows the chain as printed. Where two headings read alike, the source gives them in different places.

How the values were obtained:
[1] = biological target: T1, human β-glucocerebrosidase (GCase) (Homo sapiens, UniProt P04062, R534H); test: Purified recombinant human GCase inhibition in vitro; type: biochemical; settings: for Ki: purified recombinant enzyme (Cerezyme), 4-MU glucopyranoside substrate
T1 construct: purchased Genzyme (Genzyme Japan, Tokyo, Japan) / Sanofi Genzyme, Cambridge, MA, USA Cerezyme
T1 sequence (P04062 40-536 R534H): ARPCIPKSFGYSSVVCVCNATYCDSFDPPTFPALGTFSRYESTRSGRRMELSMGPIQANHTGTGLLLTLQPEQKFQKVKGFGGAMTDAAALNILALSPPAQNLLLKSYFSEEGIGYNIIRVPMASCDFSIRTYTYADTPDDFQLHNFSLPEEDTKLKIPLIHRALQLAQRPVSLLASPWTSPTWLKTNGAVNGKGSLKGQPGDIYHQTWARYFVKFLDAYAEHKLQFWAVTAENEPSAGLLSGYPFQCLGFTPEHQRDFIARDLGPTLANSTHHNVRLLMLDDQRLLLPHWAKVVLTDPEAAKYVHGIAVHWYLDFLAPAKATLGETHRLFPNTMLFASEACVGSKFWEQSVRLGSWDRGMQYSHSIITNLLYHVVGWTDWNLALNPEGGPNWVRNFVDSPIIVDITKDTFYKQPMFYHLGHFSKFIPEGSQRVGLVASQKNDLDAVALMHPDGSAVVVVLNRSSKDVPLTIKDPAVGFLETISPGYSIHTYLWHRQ
Method: Comparative assessment of the inhibition abilities of 1–4 against human lysosomal glycosidases in cell lysates (in vitro enzyme assay; see Experimental Section) confirmed the selectivity pattern previously observed for the commercial enzymes: whereas GCase was responsive to μM concentrations of the sp^2-iminosugars, the activity of lysosomal α-glucosidase, α- and β-galactosidases, α- and β-mannosidases, and hexosaminidase was not affected at concentrations of up to 200 μM. The corresponding Ki values were determined at pH 7 and 5 using purified recombinant human GCase and 4-methylumbelliferone (4-MU)-conjugated […] as the substrate (Table 2).
GCase activities were determined as above using purified human GCase, obtained from Genzyme (Genzyme Japan, Tokyo, Japan) in 0.1 M citrate buffer at pH 5 or pH 7 and 4-methylumbelliferone (4-MU)-conjugated β-D-glucopyranoside as the substrate. The reactions were terminated by adding 0.2 mL of 0.2 M glycine sodium hydroxide buffer (pH 10.7). The liberated 4-methylumbelliferone was measured in a black-well plate with a Perkin Elmer Luminescence Spectrometer, Waltham, MA, USA (excitation wavelength: 340 nm; emission: 460 nm).

GCase = biological target: T2, GCase (Homo sapiens, UniProt P04062); test: GCase activity in cultured healthy human fibroblasts; type: cell-based
T2 construct: endogenous in cells; host or cells: normal human skin fibroblasts
T2 sequence (P04062 40-536): T1 sequence (P04062 40-536 R534H) with H495R
Method: For that purpose, cells were cultured for 5 days in the absence and in the presence of various concentrations of the compounds, then lysed, and the enzyme activity was determined using 4-methylumbelliferyl β-D-glucopyranoside as substrate. Higher GCase activities in the lysate indicate that larger amounts of the protein are present and that it is functional.
Normal and Gaucher disease patients’ skin fibroblasts were cultured in Dulbecco modified Eagle’s medium (WAKO, Richmond, VA, USA) supplemented with 10% fetal bovine serum (Nichirei Biosci. Inc., Tokyo, Japan) at 37 °C in 5% CO2. For measurement of chaperone activities, fibroblasts were plated onto 35 mm dishes at 50,000 cells per dish. After 24 h incubation, the medium with the indicated concentrations of compound was applied and cells were cultured for 96 h. Then, the lysates in 0.1% Triton-X100/distilled H2O were collected from the cells and assayed for lysosomal GCase as described above. To measure the cytotoxic effect of the compounds, normal human fibroblasts were plated onto 35 mm dishes at 15,000 cells per dish and incubated overnight. Then, the medium was changed with or without compounds. After 24 h incubation, the supernatant of the cells was collected and measured by the lactate dehydrogenase assay (WAKO, Richmond, VA, USA). All the cell lines used were tested for mycoplasma contamination before conducting the chaperone and toxicity assays.

[2] = system: β-glucosidases (almonds/bovine enzymes); settings: 4 compared with its DIJ epimer 7
Description: We first evaluated the inhibitory properties of the new nonreducing mono- and bicyclic sp^2-iminosugars 4–15 against a panel of commercial glycosidases that included the α-glucosidases maltase (yeast maltase; α-Glcase1) and isomaltase (α-Glcase2) from Saccharomyces cerevisiae and amyloglucosidase (α-Glcase3) from Aspergillus niger, the β-glucosidases from almonds (β-Glcase1) and bovine liver (β-Glcase2), the α-galactosidase from green coffee beans (α-Galase), the β-galactosidase from Escherichia coli (β-Galase), and the α-mannosidase from Jack bean (α-Manase).
Inhibition constant (Ki) values were determined by spectrophotometrically measuring the residual hydrolytic activities of the glycosidases against the respective o- (for β-galactosidase from E. coli) or p-nitrophenyl α- or β-D-glycopyranoside (for other glycosidases) in the presence of the iminosugars. […] The absorbance of the resulting mixture was determined at 405 nm. Approximate value of Ki was determined from the slope of Dixon plots using a fixed concentration of substrate (around the Km value for the different glycosidases) and various concentrations of inhibitor. Full Ki determinations and enzyme inhibition mode were determined from the slope of Lineweaver–Burk plots and double reciprocal analysis.

CCCCCCCCN=C1SCC2C(O)C(O)C(O)CN12 (stereo not drawn) [Compound 4, 1-Deoxy-6-thio-5-N,6-S-(N′-octyliminomethylidene)nojirimycin]
fold stronger GCase inhibition of nonreducing vs reducing partner ([1]; 3 vs 1, 4 vs 2): ~20 fold
fold enhancement of GCase inhibition potency upon replacement of O-6 by sulfur, pH 5 ([1]; pH 5, 2 vs 1, 4 vs 3): 107 fold
Ki ([1]; pH 5, read-out: Ki human GCase, pH 5): 59 ± 3.5 nM
fold enhancement of GCase inhibition potency upon replacement of O-6 by sulfur, pH 7 ([1]; pH 7, 2 vs 1, 4 vs 3): 130 fold
Ki ([1]; pH 7, read-out: Ki human GCase, pH 7): 13 ± 1.1 nM
GCase activity in lysates of healthy human fibroblasts at higher concentrations (GCase): significantly inhibited
GCase activity in lysates of healthy human fibroblasts at 20 μM (GCase; 20 μM, 5 days culture): virtually full inhibition
fold stronger inhibition potency towards the β-glucosidases [2]: 100 fold
